Assay: Appearance of formulation (state at 25° C.)
Assay type: physicochemical
Conditions: 25° C.; components (A) and (B) at the compounding molar ratio shown
Description: Formulations 1 to 427 shown in Tables 1A to 1D were prepared by the above-described method using the components (A) and (B) at the compounding molar ratios shown in the tables, and their states at 25° C. were observed.

SMILES | state at 25° C.
NCCCC[C@H](N)C(=O)O.O=CO [Formulation 1] | Solid
CC(=O)O.NCCCC[C@H](N)C(=O)O [Formulation 2] | Solid
CCC(=O)O.NCCCC[C@H](N)C(=O)O [Formulation 3] | Solid
CCCC(=O)O.NCCCC[C@H](N)C(=O)O [Formulation 5] | Solid
CCCCC/C=C\C/C=C\CCCCCCCC(=O)O.NCCCC[C@H](N)C(=O)O [Formulation 8] | Solid
CC(O)C(=O)O.NCCCCC(N)C(=O)O (stereo not drawn) [Formulation 10] | Solid
NCCCC[C@H](N)C(=O)O.O=C(O)CCCCC(=O)O [Formulation 11] | Solid
NCCCC[C@H](N)C(=O)O.O=C(O)CCC(=O)O [Formulation 12] | Solid
NCCCC[C@H](N)C(=O)O.N[C@@H](CCC(=O)O)C(=O)O [Formulation 13] | Solid
NCCCC[C@H](N)C(=O)O.O=C(O)/C=C/C(=O)O [Formulation 14] | Liquid
NCCCC[C@H](N)C(=O)O.O=C(O)C[C@H](O)C(=O)O [Formulation 15] | Solid
NCCCC[C@H](N)C(=O)O.O=C(O)C(O)C(O)C(=O)O [Formulation 17] | Solid
NCCCC[C@H](N)C(=O)O.O=C(O)c1ccccc1 [Formulation 18] | Solid
NCCCC[C@H](N)C(=O)O.O=C(O)/C=C/c1ccccc1 [Formulation 19] | Solid
NCCCC[C@H](N)C(=O)O.O=C1O[C@H]([C@@H](O)CO)C(O)=C1O [Formulation 20] | Solid
NCCCC[C@H](N)C(=O)O.O=C1O[C@H]([C@H](O)CO)C(O)=C1O [Formulation 21] | Liquid
NCCCC[C@H](N)C(=O)O.O=CO.O=CO [Formulation 22] | Solid
CC(=O)O.CC(=O)O.NCCCC[C@H](N)C(=O)O [Formulation 23] | Solid
CCC(=O)O.CCC(=O)O.NCCCC[C@H](N)C(=O)O [Formulation 24] | Solid
CCCCCC(=O)O.CCCCCC(=O)O.NCCCC[C@H](N)C(=O)O [Formulation 25] | Solid
CCCC(=O)O.CCCC(=O)O.NCCCC[C@H](N)C(=O)O [Formulation 26] | Solid
CCCCCCCC/C=C\CCCCCCCC(=O)O.CCCCCCCC/C=C\CCCCCCCC(=O)O.NCCCC[C@H](N)C(=O)O [Formulation 28] | Solid
CCCCC/C=C\C/C=C\CCCCCCCC(=O)O.CCCCC/C=C\C/C=C\CCCCCCCC(=O)O.NCCCC[C@H](N)C(=O)O [Formulation 29] | Solid
CC(O)C(=O)O.CC(O)C(=O)O.NCCCC[C@H](N)C(=O)O [Formulation 31] | Solid
NCCCC[C@H](N)C(=O)O.O=C(O)CCCCC(=O)O.O=C(O)CCCCC(=O)O [Formulation 32] | Solid
NCCCC[C@H](N)C(=O)O.O=C(O)CCC(=O)O.O=C(O)CCC(=O)O [Formulation 33] | Solid

SMILES | state at 25° C.
NCCCC[C@H](N)C(=O)O.N[C@@H](CCC(=O)O)C(=O)O.N[C@@H](CCC(=O)O)C(=O)O [Formulation 34] | Solid
NCCCC[C@H](N)C(=O)O.O=C(O)/C=C/C(=O)O.O=C(O)/C=C/C(=O)O [Formulation 35] | Solid
NCCCC[C@H](N)C(=O)O.O=C(O)C[C@H](O)C(=O)O.O=C(O)C[C@H](O)C(=O)O [Formulation 36] | Solid
NCCCC[C@H](N)C(=O)O.O=C(O)C(O)C(O)C(=O)O.O=C(O)C(O)C(O)C(=O)O [Formulation 38] | Solid
NCCCC[C@H](N)C(=O)O.O=C(O)c1ccccc1.O=C(O)c1ccccc1 [Formulation 39] | Solid
NCCCCC(N)C(=O)O.O=C(O)C=Cc1ccccc1.O=C(O)C=Cc1ccccc1 [Formulation 40] | Solid
NCCCC[C@H](N)C(=O)O.O=C1O[C@H]([C@@H](O)CO)C(O)=C1O.O=C1O[C@H]([C@@H](O)CO)C(O)=C1O [Formulation 41] | Solid
NCCCC[C@H](N)C(=O)O.O=C1O[C@H]([C@H](O)CO)C(O)=C1O.O=C1O[C@H]([C@H](O)CO)C(O)=C1O [Formulation 42] | Solid
N=C(N)NCCC[C@H](N)C(=O)O.O=CO [Formulation 43] | Solid
CC(=O)O.N=C(N)NCCC[C@H](N)C(=O)O [Formulation 44] | Solid
CCC(=O)O.N=C(N)NCCC[C@H](N)C(=O)O [Formulation 45] | Solid
CCCCCC(=O)O.N=C(N)NCCC[C@H](N)C(=O)O [Formulation 46] | Solid
CCCC(=O)O.N=C(N)NCCC[C@H](N)C(=O)O [Formulation 47] | Solid
N=C(N)NCCC[C@H](N)C(=O)O.O=C(O)CCCCC(=O)O [Formulation 53] | Solid
N=C(N)NCCC[C@H](N)C(=O)O.O=C(O)CCC(=O)O [Formulation 54] | Solid
N=C(N)NCCC[C@H](N)C(=O)O.N[C@@H](CCC(=O)O)C(=O)O [Formulation 55] | Solid
N=C(N)NCCC[C@H](N)C(=O)O.O=C(O)/C=C/C(=O)O [Formulation 56] | Solid
N=C(N)NCCC[C@H](N)C(=O)O.O=C(O)/C=C/c1ccccc1 [Formulation 61] | Solid
N=C(N)NCCCC(N)C(=O)O.O=CO.O=CO (stereo not drawn) [Formulation 64] | Solid
CC(=O)O.CC(=O)O.N=C(N)NCCC[C@H](N)C(=O)O [Formulation 65] | Solid
CCC(=O)O.CCC(=O)O.N=C(N)NCCC[C@H](N)C(=O)O [Formulation 66] | Solid
CCCCCC(=O)O.CCCCCC(=O)O.N=C(N)NCCC[C@H](N)C(=O)O [Formulation 67] | Solid
CCCC(=O)O.CCCC(=O)O.N=C(N)NCCC[C@H](N)C(=O)O [Formulation 68] | Solid
N=C(N)NCCC[C@H](N)C(=O)O.O=C(O)CCCCC(=O)O.O=C(O)CCCCC(=O)O [Formulation 74] | Solid
N=C(N)NCCC[C@H](N)C(=O)O.O=C(O)CCC(=O)O.O=C(O)CCC(=O)O [Formulation 75] | Solid
N=C(N)NCCC[C@H](N)C(=O)O.N[C@@H](CCC(=O)O)C(=O)O.N[C@@H](CCC(=O)O)C(=O)O [Formulation 76] | Solid

SMILES | state at 25° C.
N=C(N)NCCC[C@H](N)C(=O)O.O=C(O)/C=C/C(=O)O.O=C(O)/C=C/C(=O)O [Formulation 77] | Solid
N=C(N)NCCC[C@H](N)C(=O)O.O=C(O)c1ccccc1.O=C(O)c1ccccc1 [Formulation 81] | Solid
N=C(N)NCCCC(N)C(=O)O.O=C(O)C=Cc1ccccc1.O=C(O)C=Cc1ccccc1 (stereo not drawn) [Formulation 82] | Solid
N=C(N)NCCC[C@H](N)C(=O)O.O=C1O[C@H]([C@@H](O)CO)C(O)=C1O.O=C1O[C@H]([C@@H](O)CO)C(O)=C1O [Formulation 83] | Solid
N[C@@H](Cc1c[nH]cn1)C(=O)O.O=CO [Formulation 85] | Solid
CC(=O)O.N[C@@H](Cc1c[nH]cn1)C(=O)O [Formulation 86] | Solid
CCC(=O)O.N[C@@H](Cc1c[nH]cn1)C(=O)O [Formulation 87] | Solid
CCCCCC(=O)O.N[C@@H](Cc1c[nH]cn1)C(=O)O [Formulation 88] | Solid
CCCC(=O)O.N[C@@H](Cc1c[nH]cn1)C(=O)O [Formulation 89] | Solid
CCCCCCCC/C=C\CCCCCCCC(=O)O.N[C@@H](Cc1c[nH]cn1)C(=O)O [Formulation 91] | Solid
CCCCC/C=C\C/C=C\CCCCCCCC(=O)O.N[C@@H](Cc1c[nH]cn1)C(=O)O [Formulation 92] | Solid
CC(O)C(=O)O.N[C@@H](Cc1cnc[nH]1)C(=O)O [Formulation 94] | Solid
N[C@@H](Cc1c[nH]cn1)C(=O)O.O=C(O)CCCCC(=O)O [Formulation 95] | Solid
N[C@@H](Cc1c[nH]cn1)C(=O)O.O=C(O)CCC(=O)O [Formulation 96] | Solid
N[C@@H](CCC(=O)O)C(=O)O.N[C@@H](Cc1c[nH]cn1)C(=O)O [Formulation 97] | Solid
N[C@@H](Cc1c[nH]cn1)C(=O)O.O=C(O)/C=C/C(=O)O [Formulation 98] | Solid
N[C@@H](Cc1cnc[nH]1)C(=O)O.O=C(O)C[C@H](O)C(=O)O [Formulation 99] | Solid
N[C@@H](Cc1c[nH]cn1)C(=O)O.O=C(O)C(O)C(O)C(=O)O [Formulation 101] | Solid
N[C@@H](Cc1c[nH]cn1)C(=O)O.O=C(O)c1ccccc1 [Formulation 102] | Solid
N[C@@H](Cc1c[nH]cn1)C(=O)O.O=C(O)C=Cc1ccccc1 [Formulation 103] | Solid
N[C@@H](Cc1c[nH]cn1)C(=O)O.O=C1O[C@H]([C@@H](O)CO)C(O)=C1O [Formulation 104] | Solid
N[C@@H](Cc1c[nH]cn1)C(=O)O.O=CO.O=CO [Formulation 106] | Solid
CCCCCC(=O)O.CCCCCC(=O)O.N[C@@H](Cc1cnc[nH]1)C(=O)O [Formulation 109] | Solid
CCCC(=O)O.CCCC(=O)O.N[C@@H](Cc1cnc[nH]1)C(=O)O [Formulation 110] | Solid
CCCCCCCC/C=C\CCCCCCCC(=O)O.CCCCCCCC/C=C\CCCCCCCC(=O)O.N[C@@H](Cc1c[nH]cn1)C(=O)O [Formulation 112] | Solid

Same assay, conditions: Tables 1C-1 to 1D; compounding molar ratio (Component (A):Component (B)) 1:1

SMILES | state at 25° C.
NCCCC[C@H](N)C(=O)O.N[C@@H](CCC(=O)O)C(=O)O.N[C@@H](CCC(=O)O)C(=O)O [Formulation 34] | Solid

— patent US20250186321A1, “FORMULATION USING AMINO ACID AND CARBOXYLIC ACID, ORGANIC SALT, AND COMPOSITION COMPRISING SAME AND USE THEREOF” (MIYOSHI OIL & FAT CO., LTD., priority 2021, published 2025)
